Laboratory results from publication PMC11969996, “Minimalistic bis-triarylpyridinium cations: effective antimicrobials against bacterial and fungal pathogens” (RSC Medicinal Chemistry, 2025).
In brackets after ≈: the same amount, converted by molar mass. Like-named read-outs stand apart in the source and are kept apart here.

Key:
P. aeruginosa = assay: MIC by broth microdilution (EUCAST); type: cell-based; conditions: Pseudomonas aeruginosa, ATCC27853; P. aeruginosa ATCC 27853, MHB, overnight 37 °C; read-out: Minimum inhibitory concentration (MIC90) P. aeruginosa
Protocol: (§1) The Gram-negative bacterial strain E. coli CECT 101 and P. aeruginosa ATCC 27853 were supplied by The Colección Española de Cultivos Tipo (CECT, Valencia, Spain) and the American Type Culture Collection (ATCC, Rockville, MD, USA). The Gram-positive bacterial strain S. aureus ATCC 25923, E. faecalis ATCC 29212 and the fungal strain C. albicans ATCC 1023 were supplied by The American Type Culture Collection (ATCC, Maryland, USA). Bacterial and yeast growth was carried out aerobically overnight at 35 °C in Mueller Hinton agar and Sabouraud dextrose agar, respectively (Scharlau, Spain).
(§2) The MIC of the compounds 1a–d, 2a–d, and 3a–d was determined by a broth microdilution method according to the EUCAST protocol. Briefly, 0.5 McFarland bacterial and fungal suspensions were prepared in Müeller Hinton broth (MHB) and Sabouraud dextrose broth (SDB) media, respectively. In a 96-well plate, serial dilutions of compounds 1a–d, 2a–d, 3a–d starting from 512 to 0 μg mL^−1 were made in MHB and SDB media, respectively. After incubation overnight at 37 °C, results were evaluated according to turbidity. Bacterial growth was determined by measuring absorbance at a wavelength of 600 nm and at 520 nm for fungi.[53–55]

E. coli [1] = assay: MIC by broth microdilution (EUCAST); type: cell-based; conditions: Escherichia coli, CECT101; E. coli CECT 101, MHB, overnight 37 °C; read-out: Minimum inhibitory concentration (MIC90) E. coli
Protocol: as §1, §2

S. aureus [2] = assay: MIC by broth microdilution (EUCAST); type: cell-based; conditions: Staphylococcus aureus, ATCC25923; S. aureus ATCC 25923, MHB, overnight 37 °C; read-out: Minimum inhibitory concentration (MIC90) S. aureus
Protocol: as §1, §2

C. albicans [3] = assay: Mitochondrial membrane depolarization, DiOC6(3) staining, flow cytometry; type: cell-based, Candida albicans; conditions: 3.5 hours
Protocol: Cultures of C. albicans were incubated with the fluorescent probe DiOC6(3), which typically accumulates in mitochondria due to the high membrane potential when the organelle works properly. Flow cytometry was used to measure the fluorescence intensity of the accumulated dye, establishing a baseline control (see “control” in Fig. 4).
To evaluate mitochondrial function in C. albicans by DiOC6 staining, the yeast cells were initially cultivated overnight in Sabouraud broth. The cultures were then transferred to a fresh medium, adjusting the OD600 to 0.1. […] The cultures were incubated for 3.5 hours with orbital shaking at 37 °C. After this period, the OD of each culture was standardized to 0.06 using the corresponding spent medium. Cells were subsequently stained with 0.3 μM DiOC6 for 20 minutes. Assays were performed in triplicate. Analysis was conducted using a BD Accuri™ C6 flow cytometer.

E. faecalis = assay: MIC by broth microdilution (EUCAST); type: cell-based, Enterococcus faecalis; conditions: E. faecalis ATCC 29212, MHB, overnight 37 °C, read-out: Minimum inhibitory concentration (MIC90) E. faecalis
Protocol: as §1, §2

C. albicans [4] = assay: MIC by broth microdilution (EUCAST); type: cell-based, Candida albicans; conditions: overnight 37 °C, read-out: Minimum inhibitory concentration (MIC90) C. albicans
Protocol: as §1, §2

red blood cells = assay: Lysis (hemolysis) assay; type: cell-based; conditions: human erythrocytes, 1 hour, 37 °C, 1% DMSO
Protocol: The hemolysis test was performed following literature procedures.[14] Preparation of the erythrocyte suspension: human blood (6 mL) was transferred to a Falcon tube. The sample was then centrifuged at 10 000 rpm for 10 minutes. After centrifugation, the supernatant was discarded, and the cells were resuspended in 4 mL of 10 mM PBS. This centrifugation and resuspension process was repeated twice to remove plasma residues. Finally, the resulting cell suspension was diluted at a 1 : 20 ratio with 10 mM PBS. Hemolysis assay: a total of 500 μL of the prepared erythrocyte suspension was aliquoted into Eppendorf tubes according to the experimental conditions. The final DMSO concentration in each condition was adjusted to 1%. A 1% Triton™ X-100 solution was used as the positive control (100% hemolysis), while the negative control consisted of erythrocytes suspended in PBS with 1% DMSO (0% hemolysis). Samples were incubated at 37 °C with shaking at 200 rpm for 1 hour. Following incubation, the samples were centrifuged at 10 000 rpm for 10 minutes. Subsequently, 200 μL of the supernatant was collected and transferred to a 96-well plate. Absorbance was measured at 520 nm using a plate reader.

S. aureus [5] = conditions: cited from earlier work
C. albicans [6] = conditions: cited from earlier work
E. coli [7] = conditions: cited from earlier work
[8] = Enterococcus faecalis, ATCC29212
[9] = Candida albicans, ATCC1023, C. albicans ATCC 1023, SDB

c1ccc(-c2cc(-c3ccccc3)[n+](CCCCCCCCCC[n+]3c(-c4ccccc4)cc(-c4ccccc4)cc3-c3ccccc3)c(-c3ccccc3)c2)cc1 [1a]
MIC90 (P. aeruginosa): 70 µM
MIC90 (E. coli [1]): 4.4 µM
MIC90 (S. aureus [2]): 4.4 µM
DiOC6(3) fluorescence intensity relative to control (C. albicans [3]; compound at 6 μM): about one-tenth
MIC90 (E. faecalis; [8]): 1.1 µM
MIC90 (C. albicans [4]; C. albicans ATCC 1023, SDB): 2.2 µM
MIC90 (C. albicans [4]; [9]): 2.2 to 6.2 µM
Lysis20 (red blood cells): 45 µM

Brc1ccc(-c2cc(-c3ccccc3)[n+](CCCCCCCCCC[n+]3c(-c4ccccc4)cc(-c4ccc(Br)cc4)cc3-c3ccccc3)c(-c3ccccc3)c2)cc1 [1b]
MIC90 (P. aeruginosa): 30 µM
MIC90 (E. coli [1]): 7.6 µM
MIC90 (S. aureus [2]): 7.6 µM
MIC90 (E. faecalis; [8]): 1 µM
MIC90 (C. albicans [4]; [9]): 118 µM
Lysis20 (red blood cells): 20 µM

Brc1ccc(-c2cc(-c3ccccc3)cc(-c3ccc(Br)cc3)[n+]2CCCCCCCCCC[n+]2c(-c3ccc(Br)cc3)cc(-c3ccccc3)cc2-c2ccc(Br)cc2)cc1 [1c]
MIC90 (P. aeruginosa): > 103 µM
MIC90 (E. coli [1]): > 103 µM
MIC90 (S. aureus [2]): 13 µM
MIC90 (E. faecalis; [8]): 13 µM
MIC90 (C. albicans [4]; [9]): > 103 µM
Lysis20 (red blood cells): 27 µM

Brc1ccc(-c2cc(-c3ccc(Br)cc3)[n+](CCCCCCCCCC[n+]3c(-c4ccc(Br)cc4)cc(-c4ccc(Br)cc4)cc3-c3ccc(Br)cc3)c(-c3ccc(Br)cc3)c2)cc1 [1d]
MIC90 (P. aeruginosa): > 91 µM
MIC90 (E. coli [1]): 46 µM
MIC90 (S. aureus [2]): 11 µM
MIC90 (E. faecalis): 6.0 µM
MIC90 (E. faecalis; [8]): 6 µM
MIC90 (C. albicans [4]; C. albicans ATCC 1023, SDB): >91 µM
MIC90 (C. albicans [4]; [9]): > 91 µM
Lysis20 (red blood cells): >256 µM

CCCCCCCCCCCC[n+]1c(-c2ccccc2)cc(-c2ccccc2)cc1-c1ccccc1 [2a]
MIC90 (P. aeruginosa): > 112 µM
MIC90 (E. coli [1]): 28 µM
MIC90 (S. aureus [2]): 28 µM
MIC90 (E. faecalis; [8]): 3.6 µM
MIC90 (C. albicans [4]; C. albicans ATCC 1023, SDB): 3.6 µM
MIC90 (C. albicans [4]; [9]): 2.2 to 6.2 µM
Lysis20 (red blood cells): 31 µM

CCCCCCCCCCCC[n+]1c(-c2ccccc2)cc(-c2ccc(Br)cc2)cc1-c1ccccc1 [2b]
MIC90 (P. aeruginosa): > 200 µM
MIC90 (E. coli [1]): 25 µM
MIC90 (S. aureus [2]): 12 µM
MIC90 (E. faecalis; [8]): 24 µM
Lysis20 (red blood cells): 26 µM

CCCCCCCCCCCC[n+]1c(-c2ccc(Br)cc2)cc(-c2ccccc2)cc1-c1ccc(Br)cc1 [2c]
MIC90 (P. aeruginosa): > 178 µM
MIC90 (E. coli [1]): 178 µM
MIC90 (S. aureus [2]): 22 µM
MIC90 (E. faecalis; [8]): 11 µM
MIC90 (C. albicans [4]; [9]): 178 µM
Lysis20 (red blood cells): 26 µM

CCCCCCCCCCCC[n+]1c(-c2ccc(Br)cc2)cc(-c2ccc(Br)cc2)cc1-c1ccc(Br)cc1 [2d]
MIC90 (P. aeruginosa): > 160 µM
MIC90 (E. coli [1]): > 320 µM
MIC90 (S. aureus [2]): 40 µM
MIC90 (E. faecalis; [8]): 40 µM
MIC90 (C. albicans [4]; [9]): > 160 µM
Lysis20 (red blood cells): 42 µM

CCC[n+]1c(-c2ccccc2)cc(-c2ccccc2)cc1-c1ccccc1 [3a]
MIC90 (P. aeruginosa): > 293 µM
MIC90 (E. coli [1]): > 585 µM
MIC90 (S. aureus [2]): 146 µM
DiOC6(3) fluorescence intensity relative to control (C. albicans [3]; compound at 6 μM): normal DiOC6(3) accumulation
MIC90 (E. faecalis; [8]): > 293 µM
MIC90 (C. albicans [4]; [9]): > 293 µM
Lysis20 (red blood cells): >256 µM

CCC[n+]1c(-c2ccccc2)cc(-c2ccc(Br)cc2)cc1-c1ccccc1 [3b]
MIC90 (P. aeruginosa): > 248 µM
MIC90 (E. coli [1]): > 496 µM
MIC90 (S. aureus [2]): 31 µM
MIC90 (E. faecalis; [8]): 124 µM
MIC90 (C. albicans [4]; [9]): > 248 µM
Lysis20 (red blood cells): >256 µM

CCC[n+]1c(-c2ccc(Br)cc2)cc(-c2ccccc2)cc1-c1ccc(Br)cc1 [3c]
MIC90 (P. aeruginosa): > 215 µM
MIC90 (E. coli [1]): > 430 µM
MIC90 (S. aureus [2]): 54 µM
MIC90 (E. faecalis; [8]): 54 µM
MIC90 (C. albicans [4]; [9]): > 215 µM
Lysis20 (red blood cells): >256 µM

CCC[n+]1c(-c2ccc(Br)cc2)cc(-c2ccc(Br)cc2)cc1-c1ccc(Br)cc1 [3d]
MIC90 (P. aeruginosa): > 190 µM
MIC90 (E. coli [1]): > 380 µM
MIC90 (S. aureus [2]): 48 µM
MIC90 (E. faecalis; [8]): 24 µM
MIC (C. albicans [4]; [9]): > 90 µM
Lysis20 (red blood cells): >256 µM

Cc1cc(N)c2ccccc2[n+]1CCCCCCCCCC[n+]1c(C)cc(N)c2ccccc21 [DQA, dequalinium chloride]
MIC (S. aureus [5]): 2.4 µM
MIC (C. albicans [6]): 5.5 µM
MIC (E. coli [7]): 121 µM

N#CC(C#N)=NNc1ccc(OC(F)(F)F)cc1 [FCCP, carbonyl cyanide-4-(trifluoromethoxy)phenylhydrazone, reference compound]
DiOC6(3) fluorescence intensity relative to control (C. albicans [3]; compound at 30 μM): approximately half

CCCCCCCCN=c1ccn(CCCCCCCCCCn2ccc(=NCCCCCCCC)cc2)cc1 [OCT, octenidine]
MIC (C. albicans [6]): 2.93 µM (≈ 1.61 µg/mL)

COc1ccc2cc3[n+](cc2c1OC)CCc1cc2c(cc1-3)OCO2 [berberine]
MIC (C. albicans [6]): 24 µM

benzalkonium chloride [BAC]
MIC (S. aureus [5]): 4 µM
MIC (E. coli [7]): 63 µM
